Here are results for one compound from US20080227820A1, “CYCLIC PHENYL-SUBSTITUTED INDAZOLS, A PROCESS FOR THEIR PRODUCTION AND THEIR USE AS ANTI-INFLAMMATORY AGENTS” (priority 2006, published 2008).

Assay [1] deals with T1, glucocorticoid receptor (GR) (Homo sapiens, UniProt P04150).
T1 construct: made in house; host or cells: Sf9 cells infected with recombinant baculovirus (cytosol preparation)
T1 sequence (P04150 1-777): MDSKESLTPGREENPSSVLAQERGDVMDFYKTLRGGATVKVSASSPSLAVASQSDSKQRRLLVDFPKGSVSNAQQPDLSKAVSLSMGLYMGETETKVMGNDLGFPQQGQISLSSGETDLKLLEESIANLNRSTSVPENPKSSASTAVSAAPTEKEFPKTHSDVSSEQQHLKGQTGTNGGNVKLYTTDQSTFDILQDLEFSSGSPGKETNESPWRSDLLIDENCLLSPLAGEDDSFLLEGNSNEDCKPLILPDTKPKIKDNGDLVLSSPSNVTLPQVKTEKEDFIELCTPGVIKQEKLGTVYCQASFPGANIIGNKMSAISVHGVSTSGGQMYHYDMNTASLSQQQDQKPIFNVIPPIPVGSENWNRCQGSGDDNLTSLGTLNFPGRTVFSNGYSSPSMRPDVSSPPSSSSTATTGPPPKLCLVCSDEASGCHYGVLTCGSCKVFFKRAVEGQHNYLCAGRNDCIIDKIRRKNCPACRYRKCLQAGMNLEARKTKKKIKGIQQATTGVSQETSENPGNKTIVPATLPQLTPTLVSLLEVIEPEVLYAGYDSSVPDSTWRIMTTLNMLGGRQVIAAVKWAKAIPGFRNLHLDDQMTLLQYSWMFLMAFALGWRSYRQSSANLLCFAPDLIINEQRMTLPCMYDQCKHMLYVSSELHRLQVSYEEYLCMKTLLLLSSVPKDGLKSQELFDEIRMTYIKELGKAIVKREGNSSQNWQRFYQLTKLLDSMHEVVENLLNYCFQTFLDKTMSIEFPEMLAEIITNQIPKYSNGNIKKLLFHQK
As to the kind of experiment: Binding to recombinant glucocorticoid receptor, Sf9 cytosol, vs [3H]-dexamethasone. The note with it: [3H]-dexamethasone reference. An excerpt: (§1) The binding of the substances to the glucocorticoid receptor (GR) and other steroid hormone receptors (mineral corticoid receptor (MR), progesterone receptor (PR) and androgen receptor (AR)) is examined with the aid of recombinantly produced receptors. Cytosol preparations of Sf9 cells, which had been infected with recombinant baculoviruses, which code for the GR, are used for the binding studies. In comparison to reference substance [^3H]-dexamethasone, the substances show a high to very high affinity to GR.

The next assay addresses T2, androgen receptor (AR) (Homo sapiens, UniProt P10275).
T2 sequence (P10275 1-920): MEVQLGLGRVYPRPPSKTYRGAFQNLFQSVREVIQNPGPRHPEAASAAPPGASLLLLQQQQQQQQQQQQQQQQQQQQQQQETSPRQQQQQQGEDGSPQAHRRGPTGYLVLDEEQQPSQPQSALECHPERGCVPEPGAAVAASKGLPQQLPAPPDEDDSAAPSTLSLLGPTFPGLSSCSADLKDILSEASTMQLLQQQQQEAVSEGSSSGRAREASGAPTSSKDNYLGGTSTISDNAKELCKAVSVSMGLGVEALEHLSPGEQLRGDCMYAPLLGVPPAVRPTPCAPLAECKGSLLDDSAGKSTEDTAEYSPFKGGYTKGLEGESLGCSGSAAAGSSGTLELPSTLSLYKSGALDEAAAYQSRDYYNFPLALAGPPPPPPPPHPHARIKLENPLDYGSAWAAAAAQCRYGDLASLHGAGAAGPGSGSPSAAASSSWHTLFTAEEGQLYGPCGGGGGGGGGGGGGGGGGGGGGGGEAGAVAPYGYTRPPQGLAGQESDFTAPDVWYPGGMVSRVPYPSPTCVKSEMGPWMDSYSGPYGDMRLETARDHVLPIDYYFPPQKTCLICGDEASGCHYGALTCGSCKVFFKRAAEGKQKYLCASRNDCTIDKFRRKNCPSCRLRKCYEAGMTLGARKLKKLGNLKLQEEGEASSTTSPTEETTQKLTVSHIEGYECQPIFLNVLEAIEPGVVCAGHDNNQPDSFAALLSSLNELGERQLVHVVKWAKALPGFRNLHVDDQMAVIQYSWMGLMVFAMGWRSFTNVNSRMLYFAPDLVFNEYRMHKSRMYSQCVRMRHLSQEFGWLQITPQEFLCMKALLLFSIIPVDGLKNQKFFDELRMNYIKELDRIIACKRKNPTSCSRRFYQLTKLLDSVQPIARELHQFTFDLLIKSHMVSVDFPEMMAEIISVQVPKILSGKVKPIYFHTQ
As to the kind of experiment: Binding to recombinant androgen receptor. The settings on record: recombinantly produced receptor.
Description: as §1

The target in assay [2] is T3, mineral corticoid receptor (MR) (Homo sapiens, UniProt P08235).
T3 sequence (P08235 1-984): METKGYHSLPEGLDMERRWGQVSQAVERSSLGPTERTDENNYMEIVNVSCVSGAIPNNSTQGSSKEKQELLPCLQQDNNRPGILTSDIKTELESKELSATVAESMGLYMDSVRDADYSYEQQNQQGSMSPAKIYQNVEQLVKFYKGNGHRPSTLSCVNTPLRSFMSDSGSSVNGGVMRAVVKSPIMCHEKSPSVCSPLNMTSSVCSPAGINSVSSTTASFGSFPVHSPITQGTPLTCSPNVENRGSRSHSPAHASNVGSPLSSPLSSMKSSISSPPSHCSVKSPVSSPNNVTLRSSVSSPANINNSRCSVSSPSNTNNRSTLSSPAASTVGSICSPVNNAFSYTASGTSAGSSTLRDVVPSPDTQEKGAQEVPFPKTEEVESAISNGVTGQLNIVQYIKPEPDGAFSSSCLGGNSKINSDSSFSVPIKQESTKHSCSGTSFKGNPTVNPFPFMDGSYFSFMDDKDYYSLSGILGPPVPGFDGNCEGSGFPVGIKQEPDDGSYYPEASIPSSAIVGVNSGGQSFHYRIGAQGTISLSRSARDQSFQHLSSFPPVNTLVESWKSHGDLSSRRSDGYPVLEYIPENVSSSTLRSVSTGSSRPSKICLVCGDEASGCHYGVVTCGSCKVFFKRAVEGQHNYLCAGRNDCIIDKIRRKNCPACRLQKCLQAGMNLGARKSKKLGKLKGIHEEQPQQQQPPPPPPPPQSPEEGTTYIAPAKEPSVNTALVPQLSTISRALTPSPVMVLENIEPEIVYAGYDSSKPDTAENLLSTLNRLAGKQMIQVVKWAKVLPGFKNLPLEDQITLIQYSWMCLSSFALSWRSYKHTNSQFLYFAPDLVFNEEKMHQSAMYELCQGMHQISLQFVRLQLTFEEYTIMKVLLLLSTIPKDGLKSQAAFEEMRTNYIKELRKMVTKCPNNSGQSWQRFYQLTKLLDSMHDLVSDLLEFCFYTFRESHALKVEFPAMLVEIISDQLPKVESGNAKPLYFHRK
As to the kind of experiment: Binding to recombinant mineral corticoid receptor. The settings on record: recombinantly produced receptor.
Description: as §1

For assay [3], the system named is human monocyte cell line THP-1. Kind of assay: Inhibition of LPS-triggered IL-8 secretion in THP-1 cells (ELISA). Type of assay: cell-based. On the procedure: The concentration of the cytokines was determined in the supernatant by means of commercially available ELISA kits.
(In general: ELISA stands for enzyme-linked immunosorbent assay.)

The target in another assay is ER. As to the kind of experiment: Steroid receptor binding, ER.
The target of assay [4] is T4, progesterone receptor (PR) (Homo sapiens, UniProt P06401).
T4 sequence (P06401 1-933): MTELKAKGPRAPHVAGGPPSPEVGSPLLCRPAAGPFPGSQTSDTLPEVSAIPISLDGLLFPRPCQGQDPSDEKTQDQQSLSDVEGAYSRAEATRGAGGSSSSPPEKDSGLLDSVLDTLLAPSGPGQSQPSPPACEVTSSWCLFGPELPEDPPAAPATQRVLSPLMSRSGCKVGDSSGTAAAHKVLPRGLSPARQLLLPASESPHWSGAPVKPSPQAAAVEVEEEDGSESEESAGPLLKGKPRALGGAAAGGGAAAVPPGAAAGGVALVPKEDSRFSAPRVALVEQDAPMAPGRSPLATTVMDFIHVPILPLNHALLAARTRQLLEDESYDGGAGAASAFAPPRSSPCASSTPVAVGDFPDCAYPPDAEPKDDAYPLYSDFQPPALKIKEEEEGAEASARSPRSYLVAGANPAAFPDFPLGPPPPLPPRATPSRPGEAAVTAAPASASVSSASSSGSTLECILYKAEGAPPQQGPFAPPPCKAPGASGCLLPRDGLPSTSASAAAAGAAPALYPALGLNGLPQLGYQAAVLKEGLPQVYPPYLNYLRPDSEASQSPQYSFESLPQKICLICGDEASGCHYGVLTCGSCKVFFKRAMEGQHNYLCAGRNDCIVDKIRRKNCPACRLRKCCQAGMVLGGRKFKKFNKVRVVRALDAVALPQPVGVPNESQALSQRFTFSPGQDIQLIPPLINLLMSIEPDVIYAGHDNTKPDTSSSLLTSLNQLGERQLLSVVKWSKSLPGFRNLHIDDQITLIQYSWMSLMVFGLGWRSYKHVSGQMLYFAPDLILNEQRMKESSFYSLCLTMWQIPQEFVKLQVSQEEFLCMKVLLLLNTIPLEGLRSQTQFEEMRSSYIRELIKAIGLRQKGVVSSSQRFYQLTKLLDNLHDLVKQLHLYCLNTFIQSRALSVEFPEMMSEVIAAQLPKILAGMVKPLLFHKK
Kind of assay: Binding to recombinant progesterone receptor. The settings on record: recombinantly produced receptor.
Description: as §1

Broadly, the IC50 is the concentration that inhibits the measured activity by half. For `CC[C@@H]1C[C@](O)(C(F)(F)F)[C@@H](Nc2cccc3c2cnn3-c2ccc(F)cc2)c2ccc(F)c(O)c21` [Example 4], the IC50 in assay [1] is 16.5 nM; on androgen receptor (AR), more than 1000 nM; in assay [2], more than 1000 nM; in assay [3] (Homo sapiens, THP-1, supernatant ELISA, read-out: IC50(IL8)), 2.4 nM; on ER, more than 1000 nM; in assay [4] it was more than 1000 nM. Also, in assay [3] (THP-1, relative to dexamethasone), the “eff. relative to dexamethasone (IL-8 inhibition)” value is 91%.
